Assay results from paper PMC3673936, “Molecular Characterization and Functions of Fatty Acid and Retinoid Binding Protein Gene (Ab-far-1) in Aphelenchoides besseyi” (PLoS ONE, 2013).
pKd: −log10 of the molar value.

Target: T1, rAb-FAR-1 (Aphelenchoides besseyi, UniProt R9QS34)
T1 construct: E. coli BL21(DE3), pET-32a (BamHI/XhoI), N-terminal His-tag fusion, Ni-purified; ORF 181 aa with predicted signal peptide; called full-length, primer FARf-BamHI lacks ATG at its start
Test: fluorescence titration
Assay type: binding

T1 sequence (R9QS34 entry or part of it): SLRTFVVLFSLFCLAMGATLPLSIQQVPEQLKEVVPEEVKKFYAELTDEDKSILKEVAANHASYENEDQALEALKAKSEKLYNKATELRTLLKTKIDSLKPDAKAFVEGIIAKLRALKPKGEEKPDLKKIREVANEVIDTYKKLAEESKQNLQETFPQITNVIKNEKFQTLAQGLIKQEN

With `CC1=C(/C=C/C(C)=C/C=C/C(C)=C/CO)C(C)(C)CCC1` [retinol] as the compound, how does the pKd read?
Its pKd is 5.47.

`CN(C)c1cccc2c(S(=O)(=O)NCCCCCCCCCCC(=O)O)cccc12` [DAUDA, 11-((5-dimethylaminonaphthalene-1-sulfonyl)amino) undecannoic acid] was tested. Which pKd did it give?
The pKd was 5.47.

With `CC\C=C/C=C/C=C/C=C\CCCCCCCC(=O)O` [cis-parinaric acid] as the compound, how does the pKd read?
The pKd was 5.17.
